Patent publication US6737383B1, “Herbicidal oxadiazolidines” (priority 1999, dated 2004)

Legend:
blackgrass = experiment: Test B pre/postemergence blackgrass; type: in vivo, Alopecurus myosuroides
Outline: (§1)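 Test chemicals in a non-phytotoxic solvent mixture with surfactant were sprayed preemergence onto planted seeds and postemergence onto plants 2 to 18 cm tall (1- to 4-leaf stage). After twelve to sixteen days in a greenhouse, injury was visually rated against untreated controls from 0 (no effect) to 10 (complete control).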

cocklebur = experiment: Test B pre/postemergence cocklebur; type: in vivo, Xanthium strumarium
Outline: as §1

giant foxtail = experiment: Test B pre/postemergence giant foxtail; type: in vivo, Setaria faberii
Outline: as §1

morningglory = experiment: Test B pre/postemergence morningglory; type: in vivo, Ipomoea hederacea
Outline: as §1

pigweed = experiment: Test B pre/postemergence pigweed; type: in vivo, Amaranthus retroflexus
Outline: as §1

rape = experiment: Test B pre/postemergence rape; type: in vivo, Brassica napus
Outline: as §1

soybean = experiment: Test B pre/postemergence soybean; type: in vivo, Glycine max
Outline: as §1

sugar beet = experiment: Test B pre/postemergence sugar beet; type: in vivo, Beta vulgaris
Outline: as §1

velvetleaf = experiment: Test B pre/postemergence velvetleaf; type: in vivo, Abutilon theophrasti
Outline: as §1

wheat = experiment: Test B pre/postemergence wheat; type: in vivo, Triticum aestivum
Outline: as §1

wild oat = experiment: Test B pre/postemergence wild oat; type: in vivo, Avena fatua
Outline: as §1

purple nutsedge = experiment: Test B pre/postemergence purple nutsedge; type: in vivo, Cyperus rotundus; details: Postemergence
Outline: as §1

rice = experiment: Test B flood test rice; type: in vivo, Oryza sativa
Outline: (§2)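 Plants were grown to the 2-leaf stage before treatment with test chemical, then held in a greenhouse for twelve to sixteen days. Injury was visually rated against untreated controls on a 0–10 scale, where 0 is no effect and 10 is complete control.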

smallflower flatsedge = experiment: Test B flood test smallflower flatsedge; type: in vivo, Cyperus difformis
Outline: as §2

duck salad = experiment: Test B flood test duck salad; type: in vivo, Heteranthera limosa
Outline: as §2

bamyardgrass = experiment: Test B flood test barnyardgrass; type: in vivo, Echinochloa crus-galli
Outline: as §2

[1] = Preemergence, Rate 62 g/ha, scale of 0 to 10 where 0 is no effect and 10 is complete control
[2] = Preemergence, Rate 250 g/ha, scale of 0 to 10 where 0 is no effect and 10 is complete control
[3] = Preemergence, Rate 500 g/ha, scale of 0 to 10 where 0 is no effect and 10 is complete control
[4] = Rate 62 g/ha, Postemergence, scale of 0 to 10 where 0 is no effect and 10 is complete control
[5] = Rate 125 g/ha, Postemergence, scale 0 to 10
[6] = Rate 125 g/ha, Preemergence, scale of 0 to 10 where 0 is no effect and 10 is complete control
[7] = Rate 500 g/ha, Postemergence, scale 0 to 10, 0 no effect, 10 complete control
[8] = Rate 62 g/ha, headed Pre-emergence (flood test species), scale 0 to 10 (0 no effect, 10 complete control)
[9] = Rate 125 g/ha, Pre-emergence, flood test species, scale 0 to 10 where 0 is no effect and 10 is complete control
[10] = Rate 250 g/ha, Pre-emergence, flood-test species, scale 0 to 10, 0 is no effect, 10 is complete control
[11] = Rate 500 g/ha, Pre-emergence, flood test species, scale 0 to 10 (0 no effect, 10 complete control)

With `CC(C)N(C(=O)n1oc(=O)n(CCC2OCCO2)c1=O)c1ccc(F)cc1` [Compound 219] the “Blackgrass plant response rating” value (blackgrass; [1]) was 7, the “Blackgrass plant response rating” value (blackgrass; [2]) was 10 and the “Plant response rating, Blackgrass” value (blackgrass; [3]) was 10. For the same molecule, the “Blackgrass plant response rating” value (blackgrass; [4]) was 5, the “Blackgrass plant response rating” value (blackgrass; [5]) was 7 and the “Blackgrass plant response rating” value (blackgrass; [6]) was 10. For the same molecule, the “Plant response rating (0 to 10; 0 is no effect, 10 is complete control), Blackgrass” value (blackgrass; Rate 250 g/ha, Postemergence) was 8, the “Blackgrass plant response rating” value (blackgrass; [7]) was 8 and the “Cocklebur plant response rating” value (cocklebur; [1]) was 0. The “Cocklebur plant response rating” value (cocklebur; [2]) was 0, the “Plant response rating, Cocklebur” value (cocklebur; [3]) was 0 and the “Cocklebur plant response rating” value (cocklebur; [4]) was 1. The “Cocklebur plant response rating” value (cocklebur; [5]) was 1, the “Cocklebur plant response rating” value (cocklebur; [6]) was 0 and the “Plant response rating (0 to 10; 0 is no effect, 10 is complete control), Cocklebur” value (cocklebur; Rate 250 g/ha, Postemergence) was 4. For the same molecule, the “Cocklebur plant response rating” value (cocklebur; [7]) was 4, the “Giant foxtail plant response rating” value (giant foxtail; [1]) was 10 and the “Giant foxtail plant response rating” value (giant foxtail; [2]) was 10. For the same molecule, the “Plant response rating, Giant foxtail” value (giant foxtail; [3]) was 10, the “Giant foxtail plant response rating” value (giant foxtail; [4]) was 6 and the “Giant foxtail plant response rating” value (giant foxtail; [5]) was 7. For the same molecule, the “Giant foxtail plant response rating” value (giant foxtail; [6]) was 10, the “Plant response rating (0 to 10; 0 is no effect, 10 is complete control), Giant foxtail” value (giant foxtail; Rate 250 g/ha, Postemergence) was 8 and the “Giant foxtail plant response rating” value (giant foxtail; [7]) was 9. The “Morningglory plant response rating” value (morningglory; [1]) was 0, the “Morningglory plant response rating” value (morningglory; [2]) was 0 and the “Plant response rating, Morningglory” value (morningglory; [3]) was 1. The “Morningglory plant response rating” value (morningglory; [4]) was 6, the “Morningglory plant response rating” value (morningglory; [5]) was 6 and the “Morningglory plant response rating” value (morningglory; [6]) was 0. For the same molecule, the “Plant response rating (0 to 10; 0 is no effect, 10 is complete control), Morningglory” value (morningglory; Rate 250 g/ha, Postemergence) was 7, the “Morningglory plant response rating” value (morningglory; [7]) was 7 and the “Redroot pigweed plant response rating” value (pigweed; [1]) was 0. The “Redroot pigweed plant response rating” value (pigweed; [2]) was 9, the “Plant response rating, Redroot pigweed” value (pigweed; [3]) was 10 and the “Redroot pigweed plant response rating” value (pigweed; [4]) was 5. The “Redroot pigweed plant response rating” value (pigweed; [5]) was 7, the “Redroot pigweed plant response rating” value (pigweed; [6]) was 4 and the “Plant response rating (0 to 10; 0 is no effect, 10 is complete control), Redroot pigweed” value (pigweed; Rate 250 g/ha, Postemergence) was 8. For the same molecule, the “Redroot pigweed plant response rating” value (pigweed; [7]) was 8, the “Rape plant response rating” value (rape; [1]) was 0 and the “Rape plant response rating” value (rape; [2]) was 6. For the same molecule, the “Plant response rating, Rape” value (rape; [3]) was 10, the “Rape plant response rating” value (rape; [4]) was 2 and the “Rape plant response rating” value (rape; [5]) was 3. The “Rape plant response rating” value (rape; [6]) was 0, the “Plant response rating (0 to 10; 0 is no effect, 10 is complete control), Rape” value (rape; Rate 250 g/ha, Postemergence) was 7 and the “Rape plant response rating” value (rape; [7]) was 7. For the same molecule, the “Soybean plant response rating” value (soybean; [1]) was 0, the “Soybean plant response rating” value (soybean; [2]) was 0 and the “Plant response rating, Soybean” value (soybean; [3]) was 0. The “Soybean plant response rating” value (soybean; [4]) was 5, the “Soybean plant response rating” value (soybean; [5]) was 5 and the “Soybean plant response rating” value (soybean; [6]) was 0. The “Plant response rating (0 to 10; 0 is no effect, 10 is complete control), Soybean” value (soybean; Rate 250 g/ha, Postemergence) was 7, the “Soybean plant response rating” value (soybean; [7]) was 7 and the “Sugarbeets plant response rating” value (sugar beet; [1]) was 3. For the same molecule, the “Sugarbeets plant response rating” value (sugar beet; [2]) was 4, the “Plant response rating, Sugarbeets” value (sugar beet; [3]) was 8 and the “Sugarbeets plant response rating” value (sugar beet; [4]) was 4. The “Sugarbeets plant response rating” value (sugar beet; [5]) was 4, the “Sugarbeets plant response rating” value (sugar beet; [6]) was 4 and the “Plant response rating (0 to 10; 0 is no effect, 10 is complete control), Sugarbeets” value (sugar beet; Rate 250 g/ha, Postemergence) was 4. The “Sugarbeets plant response rating” value (sugar beet; [7]) was 7, the “Velvetleaf plant response rating” value (velvetleaf; [1]) was 3 and the “Velvetleaf plant response rating” value (velvetleaf; [2]) was 7. The “Plant response rating, Velvetleaf” value (velvetleaf; [3]) was 10, the “Velvetleaf plant response rating” value (velvetleaf; [4]) was 0 and the “Velvetleaf plant response rating” value (velvetleaf; [5]) was 0. The “Velvetleaf plant response rating” value (velvetleaf; [6]) was 6, the “Plant response rating (0 to 10; 0 is no effect, 10 is complete control), Velvetleaf” value (velvetleaf; Rate 250 g/ha, Postemergence) was 2 and the “Velvetleaf plant response rating” value (velvetleaf; [7]) was 4. The “Wheat plant response rating” value (wheat; [1]) was 3, the “Wheat plant response rating” value (wheat; [2]) was 8 and the “Plant response rating, Wheat” value (wheat; [3]) was 9. The “Wheat plant response rating” value (wheat; [4]) was 5, the “Wheat plant response rating” value (wheat; [5]) was 6 and the “Wheat plant response rating” value (wheat; [6]) was 5. The “Plant response rating (0 to 10; 0 is no effect, 10 is complete control), Wheat” value (wheat; Rate 250 g/ha, Postemergence) was 7, the “Wheat plant response rating” value (wheat; [7]) was 7 and the “Wild oats plant response rating” value (wild oat; [1]) was 2. For the same molecule, the “Wild oats plant response rating” value (wild oat; [2]) was 8, the “Plant response rating, Wild oats” value (wild oat; [3]) was 9 and the “Wild oats plant response rating” value (wild oat; [4]) was 1. The “Wild oats plant response rating” value (wild oat; [5]) was 3, the “Wild oats plant response rating” value (wild oat; [6]) was 5 and the “Plant response rating (0 to 10; 0 is no effect, 10 is complete control), Wild oats” value (wild oat; Rate 250 g/ha, Postemergence) was 4. The “Wild oats plant response rating” value (wild oat; [7]) was 6, the “Nutsedge plant response rating” value (purple nutsedge; Rate 62 g/ha, scale of 0 to 10 where 0 is no effect and 10 is complete control) was 0 and the “Nutsedge plant response rating” value (purple nutsedge; Rate 125 g/ha, scale 0 to 10) was 0. The “Plant response rating (0 to 10; 0 is no effect, 10 is complete control), Nutsedge” value (purple nutsedge; Rate 250 g/ha) was 0, the “Nutsedge plant response rating” value (purple nutsedge; Rate 500 g/ha, scale 0 to 10, 0 no effect, 10 complete control) was 0 and the “Rice plant response rating” value (rice; [8]) was 0. For the same molecule, the “Rice plant response rating” value (rice; [9]) was 0, the “Rice plant response rating” value (rice; [10]) was 0 and the “Rice plant response rating” value (rice; [11]) was 6. For the same molecule, the “S. Flatsedge plant response rating” value (smallflower flatsedge; [8]) was 0, the “S. Flatsedge plant response rating” value (smallflower flatsedge; [9]) was 0 and the “S. Flatsedge plant response rating” value (smallflower flatsedge; [10]) was 0. For the same molecule, the “S. Flatsedge plant response rating” value (smallflower flatsedge; [11]) was 4, the “Ducksalad plant response rating” value (duck salad; [8]) was 0 and the “Ducksalad plant response rating” value (duck salad; [9]) was 0. For the same molecule, the “Ducksalad plant response rating” value (duck salad; [10]) was 0, the “Ducksalad plant response rating” value (duck salad; [11]) was 3 and the “Barnyardgrass plant response rating” value (bamyardgrass; [8]) was 0. For the same molecule, the “Barnyardgrass plant response rating” value (bamyardgrass; [9]) was 0, the “Barnyardgrass plant response rating” value (bamyardgrass; [10]) was 8 and the “Barnyardgrass plant response rating” value (bamyardgrass; [11]) was 9.
